In brackets after ≈: the same amount, converted by molar mass. Where two headings read alike, the source gives them in different places.
How the values were obtained:
Type in all cases: physicochemical
[1] = Equilibrium solubility in aqueous media at different pH and in biorelevant media (UPLC-UV-MS); conditions: for Equilibrium solubility Conc.: 24 h; for solubility thermodynamic at 24 h: thermodynamic from solid, read-out: Equilibrium solubility Conc.
Description: Discard the first ˜3.5 mL then collect 3 aliquots (˜0.5 mL) to be analyzed. • Quantification of the 3 aliquots by UPLC-UV-MS with the appropriate calibration curve.
• Instrument: Waters Acquity H-Class with PDA and QDa detectors • Column: Waters Acquity BEH C18, 1.7 μm, 2.1×50 mm • Flow rate: 0.65 mL/min • UV detection: 254 nm or 410 nm • Column temperature: 40° C.±2° C. • Sample temperature: 23° C.±2° C. • Injection volumes: 0.4 μL (for concentration between 1-500 μg/mL) and 9 μL (for concentration between 0.050-1 μg/mL) • Mobile phase: gradient with solutions A and B prepared as follows
• Ionisation mode: ESI+/ESI− • Source temperature: 600° C. • Capillary voltage: 0.8 kV • Cone voltage: +20V/−20V
Two standard calibration curves (chromatographic UV peak area vs. concentration) are established in DMSO at 254 nm or 410 nm for each solid form and for the solid dispersion, one between 0.025 or 0.050 μg/mL and 1 μg/mL (injection volume=9 μL) and another between 1 μg/mL and 500 μg/mL (injection volume=0.4 μL). The calibration curves are linear in the whole investigated concentration range.

[2] = pH-dependent solubility of compound (1) in aqueous media
Source text: Consequently, the in vivo absorption of compound (1) is affected by gastric pH. […] Such a decrease may occur to different extents in different patients due to inter-patient stomach pH variability.

[3] = Organic solubility screening in DCM:methanol solvent blends (visual observation)
Description: Solubility is determined by visual observation.

[4] = Acetate Buffer pH 4, room temperature
[5] = Phosphate Buffer pH 7.4, room temperature

Equilibrium solubility Conc. [1, 4]	solubility thermodynamic at 24 h ([1]; FaSSIF, 37 °C, pH 6.5, fassif, FaSSIF pH 6.5, 37° C.)	solubility thermodynamic at 24 h ([1]; FeSSIF, 37 °C, pH 5, fessif, FeSSIF pH 5.0, 37° C.)	solubility thermodynamic at 24 h ([1]; HCl 0.01N, pH 2, simulated gastric fluid, HCl 0.01N pH 2, room temperature)	Equilibrium solubility Conc. [1, 5]	solubility thermodynamic at 24 h ([1]; acetate buffer, pH 5, aqueous buffer, Acetate Buffer pH 5, room temperature)	solubility thermodynamic at 24 h ([1]; phosphate buffer, pH 6.8, aqueous buffer, Phosphate Buffer pH 6.8, room temperature)	Equilibrium solubility Conc. ([1]; Acetate Buffer pH 5, room temperature)	Equilibrium solubility Conc. ([1]; FaSSIF pH 6.5, 37° C.)	Equilibrium solubility Conc. ([1]; FeSSIF pH 5.0, 37° C.)	Equilibrium solubility Conc. ([1]; HCl 0.01N pH 2, room temperature)	Equilibrium solubility Conc. ([1]; Phosphate Buffer pH 6.8, room temperature)	decrease in solubility between pH 1.2 and pH 6.8 [2]	Solubility ([3]; DCM:methanol 70:30)	Solubility ([3]; DCM:methanol 80:20)	Solubility ([3]; DCM:methanol 90:10)	Compound
6.6 µg/mL	0.803 µg/mL (≈ 1.5 µM)	49 µg/mL (≈ 91.5 µM)	1320 µg/mL (≈ 2470 µM)	0.056 µg/mL	0.126 µg/mL (≈ 0.235 µM)	0.025 µg/mL (≈ 0.0467 µM)	–	–	–	–	–	–	–	–	–	C=CC(=O)NC1CCN(c2ncc3ncnc(Nc4ccc(Oc5ccc6c(c5)ncn6C)c(C)c4)c3n2)CC1 [compound (1) Form III, N-{1-[8-({3-methyl-4-[(1-methyl-1H-1,3-benzodiazol-5-yl)oxy]phenyl}amino)-[1,3]diazino[5,4-d]pyrimidin-2-yl]piperidin-4-yl}prop-2-enamide]
3 µg/mL	–	–	–	0.018 µg/mL	–	–	0.075 µg/mL	0.726 µg/mL	44 µg/mL	761 µg/mL	0.027 µg/mL	–	–	–	–	C=CC(=O)NC1CCN(c2ncc3ncnc(Nc4ccc(Oc5ccc6c(c5)ncn6C)c(C)c4)c3n2)CC1 [compound (1) Form IV, N-{1-[8-({3-methyl-4-[(1-methyl-1H-1,3-benzodiazol-5-yl)oxy]phenyl}amino)-[1,3]diazino[5,4-d]pyrimidin-2-yl]piperidin-4-yl}prop-2-enamide]
–	–	–	–	–	–	–	–	–	–	–	–	about 10^5 fold	>16.8 wt %	>18.7 wt %	>17.1 wt %	C=CC(=O)NC1CCN(c2ncc3ncnc(Nc4ccc(Oc5ccc6c(c5)ncn6C)c(C)c4)c3n2)CC1 [compound (1), N-{1-[8-({3-methyl-4-[(1-methyl-1H-1,3-benzodiazol-5-yl)oxy]phenyl}amino)-[1,3]diazino[5,4-d]pyrimidin-2-yl]piperidin-4-yl}prop-2-enamide]

Reference: US20240226103A1, “SOLID DISPERSION OF A HER2 INHIBITOR” (Boehringer Ingelheim International GmbH, priority 2022, published 2024)
